What was measured:
Assay in all cases: MMP inhibition assay, fluorogenic substrate FS-6
Format in all cases: biochemical
Conditions in all cases: substrate FS-6 (Mca-Lys-Pro-Leu-Gly-Leu-Dpa-Ala-Arg-NH2), enzyme and inhibitor incubated 4 h at 25° C., triplicate
MMP-13 = MMP-13 (Homo sapiens, UniProt P45452)
Description: (§1) As reported therein, the inhibitory activity of the compounds of the invention was evaluated on the known fluorogenic substrate (Mca-Lys-Pro-Leu-Gly-Leu-Dpa-Ala-Arg-NH2), shortly referred to as FS-6 (see, as a reference, U. Neumann, Analytical Biochem. 2004, 328, 166-173).
(§2) Recombinant human pro-MMP-2 was supplied by Prof. Gillian Murphy (Department of Oncology, University of Cambridge, UK), while pro-MMP-13 and pro-MMP-14 were purchased from Calbiochem. […] Pro-MMP-14 was activated with trypsin 5 μg/ml for 15 min at 37° C. followed by soybean trypsin inhibitor (SBTI) 23 μg/ml. For assay measurements, the inhibitor stock solutions (DMSO, 100 mM) were further diluted, at seven different concentrations (0.01 nM-100 μM) for each MMP in the fluorimetric assay buffer (FAB: Tris 50 mM, pH=7.5, NaCl 150 mM, CaCl2 10 mM, Brij 35 0.05% and DMSO 1%). Activated enzyme (final concentration 2.9 nM for MMP-2, 1 nM for MMP-14, 0.33 nM for MMP-13) and inhibitor solutions were incubated in the assay buffer for 4 h at 25° C. After the addition of 200 μM solution of the fluorogenic substrate Mca-Lys-Pro-Leu-Gly-Leu-Dpa-Ala-Arg-NH2 (Bachem) (see, for a reference, Neumann, U.; Kubota, H.; Frei, K.; Ganu, V.; Leppert, D. Anal. Biochem. 2004, 328, 166) for all of the enzymes in DMSO (final concentration 2 μM), the hydrolysis was monitored every 15 sec. for 20 min recording the increase in fluorescence (λex=325 nm, λem=395 nm) using a Molecular Device SpectraMax Gemini XS plate reader.
(§3) The assays were performed in triplicate, in a total volume of 200 μl per well, in 96-well microtitre plates (Corning, black, NBS). Control wells lack inhibitor. The MMP inhibition activity was expressed in relative fluorescent units (RFU). Percent of inhibition was calculated from control reactions without the inhibitor. IC50 was determined using the formula: Vi/Vo=1/(1+[I]/IC50), where Vi is the initial velocity of substrate cleavage in the presence of the inhibitor at concentration [I] and Vo is the initial velocity in the absence of the inhibitor. Results were analyzed using SoftMax Pro software and GraFit software.

MMP-14 = biological target: T1, MMP-14 (Homo sapiens, UniProt P50281)
T1 construct: purchased Calbiochem
Description: as §1, §2, §3

MMP-2 = biological target: T2, MMP-2 (Homo sapiens, UniProt P08253)
T2 construct: Prof; Gillian Murphy (Department of Oncology, University of Cambridge, UK)
T2 sequence (P08253 110-660): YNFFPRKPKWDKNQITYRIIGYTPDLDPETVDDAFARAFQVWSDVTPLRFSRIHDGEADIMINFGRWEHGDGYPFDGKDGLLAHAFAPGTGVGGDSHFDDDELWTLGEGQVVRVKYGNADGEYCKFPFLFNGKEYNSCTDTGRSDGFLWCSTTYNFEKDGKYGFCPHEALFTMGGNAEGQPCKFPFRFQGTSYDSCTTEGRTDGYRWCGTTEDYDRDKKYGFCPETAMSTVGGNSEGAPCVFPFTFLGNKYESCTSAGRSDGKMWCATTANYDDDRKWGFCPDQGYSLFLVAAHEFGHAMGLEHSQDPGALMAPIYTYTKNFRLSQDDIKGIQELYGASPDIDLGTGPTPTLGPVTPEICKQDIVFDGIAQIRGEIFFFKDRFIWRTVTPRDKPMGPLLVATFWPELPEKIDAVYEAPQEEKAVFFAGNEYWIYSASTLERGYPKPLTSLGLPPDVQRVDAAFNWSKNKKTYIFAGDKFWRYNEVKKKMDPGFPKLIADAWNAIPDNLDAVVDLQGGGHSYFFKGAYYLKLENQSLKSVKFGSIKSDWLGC
Description: as §1, §2, §3

IC50 (MMP-13) | IC50 (MMP-14) | IC50 (MMP-2) | SMILES
2.4 nM | 31 nM | 3.7 nM | O=C(CCCNC(=O)c1cccc(C(=O)NCCCC(=O)NCC[C@@H](NS(=O)(=O)c2ccc(-c3ccccc3)cc2)C(=O)NO)c1)NCC[C@@H](NS(=O)(=O)c1ccc(-c2ccccc2)cc1)C(=O)NO [1b - example 16]
1.93 nM |  | 3.6 nM | O=C(NCC[C@H](C(=O)NO)N(OCCOCCN1CCN(C(=O)c2cccc(C(=O)N3CCN(CCOCCON([C@H](CCNC(=O)OCc4ccccc4)C(=O)NO)S(=O)(=O)c4ccc(-c5ccccc5)cc4)CC3)c2)CC1)S(=O)(=O)c1ccc(-c2ccccc2)cc1)OCc1ccccc1 [2b - example 17]
